Test results from the NIST ThermoML archive (doi:10.1016/j.jct.2016.06.034).
Numbers after ± are expanded uncertainties.

Assay: osmotic coefficient (dimensionless); mn = molality of the nth substance listed, in mol/kg
Conditions: 308.15 K, 84.5 kPa, Liquid, Knauer Osmomat K-7000

CCCCCCCCCCn1cc[n+](C)c1.[Br-] [1-decyl-3-methylimidazolium bromide] + O
Conditions	osmotic coefficient
m1 = 0.01036	1.233 ± 0.009
m1 = 0.01532	1.16 ± 0.0062
m1 = 0.01539	1.154 ± 0.006
m1 = 0.02001	1.11 ± 0.0044
m1 = 0.02014	1.106 ± 0.0042
m1 = 0.02471	1.081 ± 0.0035
m1 = 0.02479	1.075 ± 0.0033
m1 = 0.03022	1.06 ± 0.0029
m1 = 0.03026	1.055 ± 0.0028
m1 = 0.03486	1.021 ± 0.0021
m1 = 0.0384	0.9873 ± 0.0021
m1 = 0.03983	0.9742 ± 0.0022
m1 = 0.04483	0.8983 ± 0.0041
m1 = 0.04981	0.8319 ± 0.0065
m1 = 0.05918	0.735 ± 0.01
m1 = 0.06429	0.687 ± 0.012
m1 = 0.06983	0.644 ± 0.014
m1 = 0.07967	0.579 ± 0.016
m1 = 0.08811	0.53 ± 0.018
m1 = 0.09976	0.48 ± 0.02
m1 = 0.1175	0.417 ± 0.023
